From patent US20230285357A1, “COMPOSITIONS AND METHODS FOR […] CELLS” (The Regents of the University of California, priority 2020, published 2023)

Test system: vascular repair
Test: Hindlimb ischemia model in nude mice after cell transplantation
Format: in vivo, mouse
Method: Then, same cells in a model of hindlimb ischemia in nude mice to evaluate the capacity of eGFP positive cells in vascular repair were tested. After ligation of the proximal and distal femoral artery, eGFP positive cells were transplanted (FIG. 2, Part F). Human aortic endothelial cells (HAECs) and osteoblasts were used as controls.
Tube formation assays in vitro was then tested. […] Cells into hindlimb ischemia mouse model were transplanted.
Laser Doppler perfusion imaging was performed using real-time microcirculation imaging system (Perimed). The imaging was conducted under normal ambient room lighting. 20×27 mm high resolution model was used with 1388×1038 pixels measurement camera and 752×580 pixels documentation camera as one image per second. The image resolution was set up as 20 μm/pixel and 21 images per frame until stopped. Windows based PIMSoft software (Perimed) was used to process the data.
The murine model of hindlimb ischemia was performed as previously described. A 10 mm long incision of the skin was made towards the medial thigh. The femoral artery was exposed and separated from femoral vein and nerve. Silk sutures were used to tie the proximal and the distal end of femoral artery with double knots. The cells (5×10^5) were transplanted into the surgical area and the incision was closed. Laser Doppler perfusion imaging was used to monitor the blood flow at different time points. Histology and immunostaining were used to examine the vascularization 2 weeks after transplantation.

## Cn1cc(C2=C(c3ccc(Cl)cc3Cl)C(=O)NC2=O)c2ccccc21 [SB216763]
SB216763-treated cells with restoring SMAD1 vs controls
  blood flow, Laser Doppler perfusion imaging: No difference was observed
SB216763-treated osteoblasts with depletion of β-catenin vs cells without depletion
  blood flow, Laser Doppler perfusion imaging: less blood flow
Transplanted eGFP positive cells
  vascular density, histology and immunostaining: increase in vascular density
Transplanted eGFP positive cells compared to osteoblasts
  limb blood flow, Laser Doppler perfusion imaging: significantly higher limb blood flow
